# According to article PMC10143848 (Viruses, 2023):
# Key:
# HSV-1 B2006 [1] = system: HSV-1 B2006
# [2] = system: IL-6, IL-4, IL-17A, IFN-γ; test: Pulmonary cytokines qRT-PCR in RSV-infected mice; assay type: in vivo, Balb/C mice; details: RSV-infected mice treated with A18, day 8 p.i.
# RSV A2 [3] = test: Adsorption and penetration assay, RSV A2; assay type: cell-based, Human RSV; details: A549 cells
# HSV-1 KOS [4] = test: microbe, parasite or virus in culture; details: Human alphaherpesvirus 1, HCLE, 24 h
# IL-6, IL-8, and TNF-α [5] = test: Cytokine determination by ELISA in RSV A2-infected cells; assay type: cell-based; details: RSV A2 moi 1, 24 h, A18 25 mg/mL, BAY 11-7085 10 mg/mL (so in the source); for IL-6 production vs RSV-infected control cells: Hep-2, A549, J774A.1 cells; for TNF-α production vs RSV-infected control cells: J774A.1 macrophages; for IL-8 production vs RSV-infected control cells: epithelial cells (Hep-2, A549)
# SARS-CoV-2 [6] = system: SARS-CoV-2
# IL-6, IL-8, and TNF-α [7] = test: Cytokine determination by ELISA in TLR2/6 and TLR3 ligand-stimulated cells; assay type: cell-based; details: A549, Hep-2, J774A.1; TLR2/6 and TLR3 ligands for 6 h / 8 h (Fig. S3); A18 25, BAY 11-7085 10
# [8] = system: airway hyperreactivity (AHR); set-up: method as in ref 14 = [14]; details: i.p. (6 mg/kg/day) and i.n. (3 mg/kg/day), mouse models of steroid-resistant and severe asthma; cited from earlier work
# HSV-1 KOS [9] = system: HSV-1 KOS
# HSV-1 Field [10] = test: microbe, parasite or virus in culture; details: Human alphaherpesvirus 1, HCLE, 24 h
# SARS-CoV-2 [11] = test: Adsorption and penetration assay, SARS-CoV-2; assay type: cell-based; details: calu-3 cells
# RSV line 19 and A2 = test: Pulmonary RSV infection in mouse model; assay type: in vivo, Balb/C mice
# RSV A2 [12] = test: Immunofluorescence, RSV gF expression in infected cells; assay type: cell-based, Human RSV; details: RSV A2 moi 1, 25 μg/mL of A18, 24 h p.i.
# HSV-1 B2006 [13] = test: microbe, parasite or virus in culture; details: Human alphaherpesvirus 1, HCLE, 24 h
# RSV A2 [14] = test: Virus yield inhibition assay, RSV A2; assay type: cell-based; details: human respiratory syncytial virus, moi 0.1, 24 h, virus yield by plaque assay
# Canine Coronavirus [15] = system: Canine Coronavirus
# SARS-CoV-2 [16] = assay type: cell-based
# HSV-1 KOS [17] = test: Adsorption and penetration assay, HSV-1 KOS; assay type: cell-based; details: HCLE cells
# SARS-CoV-2 [18] = test: microbe, parasite or virus in culture; details: Severe acute respiratory syndrome coronavirus 2, Calu-3, 24 h
# SARS-CoV-2 spike protein = system: SARS-CoV-2 spike protein; set-up: method as in ref 37 = [37]; details: molecular docking and dynamics simulation; cited from earlier work
# Canine Coronavirus [19] = test: microbe, parasite or virus in culture; details: Alphacoronavirus 1, CRFK, 24 h
# HSV-1 Field [20] = system: HSV-1 Field
# in vitro = assay type: cell-based; details: human (HEp-2, A549, HCLE, Calu-3); cat (CRFK)
# NF-κB signaling pathway = test: NF-κB-LUC reporter gene assay in RSV A2-infected cells; assay type: cell-based; details: Hep-2, A549, J774A.1 cells infected with RSV A2 moi 1, 6 h; A18 25 μg/mL, BAY 11-7085 10 mg/mL (so in the source)
# RSV A2 [21] = test: RSV qRT-PCR assay (viral RNA synthesis); assay type: cell-based, Human RSV; details: A549 and Hep-2 cells, A18 25 mg/mL (so in the source), 6 h, 15 h and 24 h p.i.
# RSV Line 19 = test: microbe, parasite or virus in culture; details: human respiratory syncytial virus
# [22] = system: SARS-CoV-2 viral main protease; set-up: method as in ref 36 = [36]; details: in silico finding; compounds from E. purpurea; cited from earlier work
smiles,measurement,setting,value
"Oc1cc(O)c2cc(O)c(-c3ccc(O)c(O)c3)[o+]c2c1 [A18, Cyanidin chloride]",SI (ratio CC50/EC50),HSV-1 B2006 [1],43
same,"pulmonary IFN-g levels, treated vs not treated",[2],did not observe statistical differences
same,pulmonary IL-4 gene expression vs untreated infected animals,[2],significantly lower levels
same,pulmonary IL-6 gene expression vs untreated infected animals,[2],significantly lower levels
same,pulmonary IL-17A gene expression vs untreated infected animals,[2],significantly lower levels
same,virus adsorption: virus yield after treatment during binding stage,"RSV A2 [3]; RSV A2 moi 1, 25 μg/mL of A18, 1 h at 4 °C",significant reduction of viral plaque formation
same,virus internalization: viral infectivity after treatment during internalization,"RSV A2 [3]; RSV A2 moi 1, 25 μg/mL of A18, 2 h at 37 °C",did not reduce viral infectivity
same,EC50,HSV-1 KOS [4],5.5 ± 0.1 µg/mL
same,IL-6 production vs RSV-infected control cells,"IL-6, IL-8, and TNF-α [5]",significantly reduced
same,TNF-α production vs RSV-infected control cells,"IL-6, IL-8, and TNF-α [5]",significantly reduced
same,IL-8 production vs RSV-infected control cells,"IL-6, IL-8, and TNF-α [5]",significantly reduced
same,SI (ratio CC50/EC50),SARS-CoV-2 [6],23
same,IL-6 production in TLR ligand-stimulated cells,"IL-6, IL-8, and TNF-α [7]",significantly inhibited
same,IL-8 production in TLR ligand-stimulated cells,"IL-6, IL-8, and TNF-α [7]",significantly inhibited
same,TNF-a production in TLR ligand-stimulated cells,"IL-6, IL-8, and TNF-α [7]",significantly inhibited
same,airway hyperreactivity (AHR),[8],alleviated airway hyperreactivity (AHR)
same,SI (ratio CC50/EC50),HSV-1 KOS [9],46
same,EC50,HSV-1 Field [10],7.6 ± 0.05 µg/mL
same,virus adsorption: virus yield after treatment during binding stage,"SARS-CoV-2 [11]; SARS-CoV-2 moi 1, 25 μg/mL of A18, 1 h at 4 °C",significant reduction of viral plaque formation
same,virus internalization: viral infectivity after treatment during internalization,"SARS-CoV-2 [11]; SARS-CoV-2 moi 1, 25 μg/mL of A18, 2 h at 37 °C",did not reduce viral infectivity
same,weight loss vs untreated infected controls,"RSV line 19 and A2; Balb/c mice, RSV A2 and line 19, A18 6 mg/kg i.p. or 3 mg/kg i.n. daily days 0-4, day 2 p.i. and entire course",significantly less weight loss
same,RSV titers in the lung vs untreated animals,"RSV line 19 and A2; Balb/c mice, RSV A2 and line 19, A18 6 mg/kg i.p. or 3 mg/kg i.n. daily, day 4 p.i.",significantly lower
same,"lung histology, semiquantitative histological scoring (Inflammation Index)","RSV line 19 and A2; RSV A2 and line 19 infected mice, H&E-stained lungs, day 8 p.i.",significantly reduced RSV-induced pathological damage
same,infected and treated cells expressing gF,"RSV A2 [12]; A549 cells, infected control 93%",23%
same,infected and treated cells expressing gF,"RSV A2 [12]; HEp-2 cells, infected control 96%",10%
same,EC50,HSV-1 B2006 [13],4.6 ± 0.05 µg/mL
same,EC50,RSV A2 [14]; RSV A2 in A549 cells,8.5 ± 0.1 µg/mL
same,EC50,RSV A2 [14]; RSV A2 in HEp-2 cells,3 ± 0.06 µg/mL
same,SI (ratio CC50/EC50),Canine Coronavirus [15],26
same,infected and treated cells expressing Spike protein,SARS-CoV-2 [16],7%
same,virus adsorption: virus yield after treatment during binding stage,"HSV-1 KOS [17]; HSV-1 KOS moi 1, 25 μg/mL of A18, 1 h at 4 °C",significant reduction of viral plaque formation
same,virus internalization: viral infectivity after treatment during internalization,"HSV-1 KOS [17]; HSV-1 KOS moi 1, 25 μg/mL of A18, 2 h at 37 °C",did not reduce viral infectivity
same,EC50,SARS-CoV-2 [18],8.9 ± 0.09 µg/mL
same,predicted interaction with SARS-CoV-2 spike protein,SARS-CoV-2 spike protein,interacts with spike protein
same,EC50,Canine Coronavirus [19],7.7 ± 0.1 µg/mL
same,SI (ratio CC50/EC50),HSV-1 Field [20],26
same,CC50 at 24 h,in vitro,> 200 µg/mL
same,NF-κB activation (NF-κB-LUC luciferase activity),NF-κB signaling pathway,strongly inhibited
same,relative contents of viral RNA vs untreated infected cells,RSV A2 [21],significantly reduced
same,EC50,"RSV Line 19; A549, 24 h",9.8 ± 0.08 µg/mL
same,EC50,"RSV Line 19; HEp-2, 24 h",8 ± 0.1 µg/mL
"CC(C)(C)c1ccc(S(=O)(=O)/C=C/C#N)cc1 [BAY 11-7085, reference compound]",IL-6 production vs RSV-infected control cells,"IL-6, IL-8, and TNF-α [5]",significantly reduced
same,TNF-α production vs RSV-infected control cells,"IL-6, IL-8, and TNF-α [5]",significantly reduced
same,IL-8 production vs RSV-infected control cells,"IL-6, IL-8, and TNF-α [5]",significantly reduced
same,IL-6 production in TLR ligand-stimulated cells,"IL-6, IL-8, and TNF-α [7]",significantly inhibited
same,IL-8 production in TLR ligand-stimulated cells,"IL-6, IL-8, and TNF-α [7]",significantly inhibited
same,TNF-a production in TLR ligand-stimulated cells,"IL-6, IL-8, and TNF-α [7]",significantly inhibited
same,NF-κB activation (NF-κB-LUC luciferase activity),NF-κB signaling pathway,strongly inhibited
O=C(O)CC(=O)OC[C@H]1O[C@@H](Oc2cc3c(O)cc(O)cc3[o+]c2-c2ccc(O)c(O)c2)[C@H](O)[C@@H](O)[C@@H]1O [Cyanidin 3-(6″-malonylglucoside)],inhibitory potential against SARS-CoV-2 via inhibition of viral main protease,[22],good inhibitory potential
OC[C@H]1O[C@@H](Oc2cc3c(O[C@@H]4O[C@H](CO)[C@@H](O)[C@H](O)[C@H]4O)cc(O)cc3[o+]c2-c2ccc(O)c(O)c2)[C@H](O)[C@@H](O)[C@@H]1O [Cyanin],inhibitory potential against SARS-CoV-2 via inhibition of viral main protease,[22],good inhibitory potential
